Our source for the TGI and GI50 values is PubChem BioAssay (NCI).

Where “and” joins values, the source holds several entries; their conditions need not be identical. Equal entries are not always repeated.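 Where inhibition never reached the appropriate level, the endpoint shown equals the highest concentration tested. Otherwise, values were interpolated linearly from a five-concentration, 48-hour dose response in 96-well plates. GI50: concentration for 50% inhibition of growth. At the TGI there is no net growth.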

Test systems include RPMI-8226 leukemia; SN12C renal; COLO 205 colon; HCC-2998 colon; SR leukemia; LOX IMVI melanoma; UACC-257 melanoma; HL-60(TB) leukemia.
Assay in all cases: NCI tumour cell line growth inhibition, 48 h

`CCSc1nc2sc(C)c(C)c2c(=O)n1-c1ccc(C(=O)O)cc1`: the TGI in the experiment on RPMI-8226 leukemia, in the experiment with SN12C renal, in the experiment with COLO 205 colon, in the experiment with HCC-2998 colon, in the experiment with SR leukemia and with LOX IMVI melanoma was above 100 µM each time. For the same compound, the TGI in the experiment with UACC-257 melanoma and with HL-60(TB) leukemia was above 100 µM each time.
For `CC(=O)OCC1OC(OC2CC3C(C)(C)C(OC(C)=O)CC[C@]3(C)C3CCC45CC4(CC[C@H]5C(C)CC(O)C4OC4(C)C)[C@]23C)C(O)C(O)C1O` (stereo partly specified), the TGI in the experiment on RPMI-8226 leukemia is 5 µM; in the experiment with SN12C renal, 8.75 µM and 14.9 µM; with COLO 205 colon, 1.84 µM and 3.79 µM; with HCC-2998 colon, 2.71 µM and 4.26 µM; in the experiment with SR leukemia, 8.58 µM; in the experiment with LOX IMVI melanoma, 3.72 µM and 2.58 µM. The TGI in the experiment with UACC-257 melanoma was 7.28 µM and 14.7 µM; in the experiment on HL-60(TB) leukemia, 2.09 µM and 3.03 µM. Besides, the GI50 in the experiment with SN12C renal was 4.44 µM; with COLO 205 colon, 2050 nM; in the experiment with HCC-2998 colon, 2680 nM; in the experiment with LOX IMVI melanoma, 1.25 µM; in the experiment on UACC-257 melanoma it was 4.1 µM; with HL-60(TB) leukemia, 623 nM.
As to `FC(F)(F)c1ccc(C=NC23CC4CC(CC(C4)C2)C3)cc1`, the TGI with RPMI-8226 leukemia, with SN12C renal, with COLO 205 colon, with HCC-2998 colon, with SR leukemia and with LOX IMVI melanoma was above 100 µM each time. In addition, the TGI in the experiment with UACC-257 melanoma and in the experiment with HL-60(TB) leukemia was above 100 µM throughout.
Turning to `Cn1cc2c(n1)c(N/N=C/c1ccccc1)nn1nnnc21`, the TGI in the experiment on RPMI-8226 leukemia, in the experiment with SN12C renal, in the experiment with COLO 205 colon, in the experiment with HCC-2998 colon, in the experiment with SR leukemia and in the experiment on LOX IMVI melanoma was above 100 µM each time. The TGI in the experiment with UACC-257 melanoma and with HL-60(TB) leukemia was above 100 µM throughout.
For `COc1ccc(NC(=O)C(=O)NNC(=O)c2sc(NNC(C)=O)nc2C)c([N+](=O)[O-])c1`, the TGI in the experiment on RPMI-8226 leukemia, with SN12C renal, in the experiment with COLO 205 colon, with HCC-2998 colon, in the experiment on SR leukemia and in the experiment on LOX IMVI melanoma was above 100 µM throughout. Also, the TGI in the experiment with UACC-257 melanoma and in the experiment with HL-60(TB) leukemia was above 100 µM each time.
Turning to `Cc1ccc(S(=O)(=O)CNC(=S)CCCC(=S)NCS(=O)(=O)c2ccc(C)cc2)cc1`, the TGI with RPMI-8226 leukemia is above 100 µM; with SN12C renal, above 100 µM; in the experiment with COLO 205 colon, above 100 µM; in the experiment on HCC-2998 colon it was above 100 µM; in the experiment with SR leukemia, above 100 µM; with LOX IMVI melanoma it was 39.4 µM. Besides, the TGI in the experiment with UACC-257 melanoma and with HL-60(TB) leukemia was above 100 µM throughout.
Consider `NC(=O)N/N=C(\Cc1nc2ccc(C(=O)c3ccccc3)cc2[nH]c1=O)C(=O)Nc1ccc(Br)cc1`, for which the TGI in the experiment with RPMI-8226 leukemia, in the experiment with SN12C renal, with HCC-2998 colon, in the experiment on SR leukemia, in the experiment on LOX IMVI melanoma and in the experiment with UACC-257 melanoma was above 100 µM throughout. Further, in the experiment with HL-60(TB) leukemia, the TGI is above 100 µM.
As to `CC(=O)O[C@H]1[C@@H]2[C@@H]3[C@@H](C[C@H]1C)[C@@H](C)CO[C@@]1(C)CC/C=C(/C)C[C@@H]2O[C@@H]31`, the TGI in the experiment on RPMI-8226 leukemia, in the experiment with SN12C renal, in the experiment on COLO 205 colon, with HCC-2998 colon, in the experiment with SR leukemia and with LOX IMVI melanoma was above 100 µM in each case. Further, the TGI in the experiment on UACC-257 melanoma and with HL-60(TB) leukemia was above 100 µM in each case.
For `Cc1ccc(S(=O)(=O)N2CCC3(C(/C=C/c4ccccc4)=Nc4ccccc43)C2c2ccccc2)cc1` (stereo unspecified), the TGI in the experiment with RPMI-8226 leukemia, in the experiment with SN12C renal, with COLO 205 colon, with HCC-2998 colon, with SR leukemia and in the experiment on LOX IMVI melanoma was above 100 µM each time. For the same compound, the TGI in the experiment with UACC-257 melanoma and in the experiment with HL-60(TB) leukemia was above 100 µM in each case.
Regarding `N#C/C(=C/c1cccnc1)C(=O)c1ccccc1`, the TGI in the experiment with RPMI-8226 leukemia, in the experiment on SN12C renal, in the experiment on COLO 205 colon, in the experiment on HCC-2998 colon, in the experiment with SR leukemia and with LOX IMVI melanoma was above 100 µM in each case. The TGI with UACC-257 melanoma and with HL-60(TB) leukemia was above 100 µM throughout.
As to `O=C([O-])c1ccc2c(c1)-c1nc-2nc2[n-]c(nc3nc(nc4[n-]c(n1)c1ccc(C(=O)[O-])cc41)-c1cc(C(=O)[O-])ccc1-3)c1ccc(C(=O)[O-])cc21.[Fe+2]`, the GI50 with RPMI-8226 leukemia was above 27.3 µM; in the experiment on SN12C renal, above 50 µM; in the experiment on COLO 205 colon, above 22200 nM; with HCC-2998 colon, above 50000 nM; in the experiment on SR leukemia, 19 µM; in the experiment with LOX IMVI melanoma, 20.7 µM. The GI50 in the experiment with UACC-257 melanoma is above 50 µM; in the experiment with HL-60(TB) leukemia it was above 22900 nM. For the same compound, the TGI with RPMI-8226 leukemia is above 36.4 µM; in the experiment with SN12C renal, above 50 µM; in the experiment with COLO 205 colon, above 31.2 µM; in the experiment with HCC-2998 colon it was above 50 µM; in the experiment on SR leukemia it was above 50 µM; in the experiment on LOX IMVI melanoma, above 42.9 µM. Besides, the TGI in the experiment with UACC-257 melanoma is above 50 µM; in the experiment on HL-60(TB) leukemia it was above 30.5 µM.
